Source: paper PMC5666424, “Marine-Derived 2-Aminoimidazolone Alkaloids. Leucettamine B-Related Polyandrocarpamines Inhibit Mammalian and Protozoan DYRK & CLK Kinases” (Marine Drugs, 2017)

Legend:
Experiment in all cases: KinomeScan
Assay type in all cases: binding
Conditions in all cases: 1 μM
MST4 = target: T1, MST4 (Homo sapiens, UniProt Q9P289)
T1 construct: purchased DiscoverX (KINOMEscan)
Protocol: (§1) Assays were performed essentially as described previously. For most assays, kinase-tagged T7 phage strains were grown in parallel in 24-well blocks in an E. coli host derived from the BL21 strain. E. coli were grown to log-phase and infected with T7 phage from a frozen stock (multiplicity of infection ~0.1) and incubated with shaking at 32 °C until lysis (~90 min). The lysates were centrifuged (6000× g) and filtered (0.2 μm) to remove cell debris. The remaining kinases were produced in HEK-293 cells and subsequently tagged with DNA for qPCR detection. […] The liganded beads were blocked with excess biotin and washed with blocking buffer (SeaBlock (Pierce, ThermoFisher Scientific, Illkirch, France), 1% BSA, 0.05% Tween 20, 1 mM DTT) to remove unbound ligand and to reduce non-specific phage binding. […] An 11-point threefold serial dilution of each test compound was prepared in 100% DMSO at 100× final test concentration which and subsequently diluted to 1× in the assay. All reactions were performed in polystyrene 96-well plates in a final volume of 0.135 mL. […] The kinase concentration in the eluates was measured by qPCR.

TIE1 = target: T2, TIE1 (Homo sapiens, UniProt P35590)
T2 construct: purchased DiscoverX (KINOMEscan)
Protocol: as §1

EPHB4 = target: T3, EPHB4 (Homo sapiens, UniProt P54760)
T3 construct: purchased DiscoverX (KINOMEscan)
Protocol: as §1

OSR1 = target: T4, OSR1 (Homo sapiens, UniProt O95747)
T4 construct: purchased DiscoverX (KINOMEscan)
Protocol: as §1

[1] = target: T5, ABL1(E255K)-phosphorylated (Homo sapiens, UniProt P00519, E255K)
T5 construct: purchased DiscoverX (KINOMEscan)
Protocol: as §1

CDK9 = target: T6, CDK9 (Homo sapiens, UniProt P50750)
T6 construct: purchased DiscoverX (KINOMEscan)
Protocol: as §1

MKNK2 = target: T7, MKNK2 (Homo sapiens, UniProt Q9HBH9)
T7 construct: purchased DiscoverX (KINOMEscan)
Protocol: as §1

ICK = target: T8, ICK (Homo sapiens, UniProt Q9UPZ9)
T8 construct: purchased DiscoverX (KINOMEscan)
T8 sequence (Q9UPZ9 whole entry): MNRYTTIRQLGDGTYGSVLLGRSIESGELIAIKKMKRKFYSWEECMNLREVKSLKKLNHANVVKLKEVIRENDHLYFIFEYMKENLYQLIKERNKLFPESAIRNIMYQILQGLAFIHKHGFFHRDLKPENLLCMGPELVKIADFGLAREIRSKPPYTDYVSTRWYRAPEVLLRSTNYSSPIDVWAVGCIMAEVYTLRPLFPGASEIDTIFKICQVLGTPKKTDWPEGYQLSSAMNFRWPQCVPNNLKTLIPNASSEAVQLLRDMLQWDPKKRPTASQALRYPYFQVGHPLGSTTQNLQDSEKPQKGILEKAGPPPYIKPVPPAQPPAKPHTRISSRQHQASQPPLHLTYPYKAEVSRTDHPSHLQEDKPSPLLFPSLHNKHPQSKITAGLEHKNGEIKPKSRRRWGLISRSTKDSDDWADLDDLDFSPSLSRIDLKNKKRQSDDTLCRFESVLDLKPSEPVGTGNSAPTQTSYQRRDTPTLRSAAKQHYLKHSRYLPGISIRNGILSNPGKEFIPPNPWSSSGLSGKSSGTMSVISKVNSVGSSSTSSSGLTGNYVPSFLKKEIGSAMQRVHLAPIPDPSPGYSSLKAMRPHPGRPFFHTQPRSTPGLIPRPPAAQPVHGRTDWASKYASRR
Protocol: as §1

MEK6 = target: T9, MEK6 (Homo sapiens, UniProt P52564)
T9 construct: purchased DiscoverX (KINOMEscan)
Protocol: as §1

TGFBR1 = target: T10, TGFBR1 (Homo sapiens, UniProt P36897)
T10 construct: purchased DiscoverX (KINOMEscan)
T10 sequence (P36897 34-503): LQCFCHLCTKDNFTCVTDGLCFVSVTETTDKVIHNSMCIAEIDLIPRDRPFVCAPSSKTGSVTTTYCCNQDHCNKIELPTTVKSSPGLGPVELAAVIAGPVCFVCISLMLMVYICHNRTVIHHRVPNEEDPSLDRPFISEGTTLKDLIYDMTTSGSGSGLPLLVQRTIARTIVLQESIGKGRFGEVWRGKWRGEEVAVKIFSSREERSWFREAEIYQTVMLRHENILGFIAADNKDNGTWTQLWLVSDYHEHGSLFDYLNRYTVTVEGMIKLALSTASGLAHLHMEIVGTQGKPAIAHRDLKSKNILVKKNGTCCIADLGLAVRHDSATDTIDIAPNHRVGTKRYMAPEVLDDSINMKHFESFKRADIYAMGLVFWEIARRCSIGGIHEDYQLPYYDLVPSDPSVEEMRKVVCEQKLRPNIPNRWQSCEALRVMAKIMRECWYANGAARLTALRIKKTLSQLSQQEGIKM
Protocol: as §1

EPHB3 = target: T11, EPHB3 (Homo sapiens, UniProt P54753)
T11 construct: purchased DiscoverX (KINOMEscan)
Protocol: as §1

SGK3 = target: T12, SGK3 (Homo sapiens, UniProt Q96BR1)
T12 construct: purchased DiscoverX (KINOMEscan)
Protocol: as §1

YANK2 = target: T13, YANK2 (Homo sapiens, UniProt Q9NY57)
T13 construct: purchased DiscoverX (KINOMEscan)
T13 sequence (Q9NY57 whole entry): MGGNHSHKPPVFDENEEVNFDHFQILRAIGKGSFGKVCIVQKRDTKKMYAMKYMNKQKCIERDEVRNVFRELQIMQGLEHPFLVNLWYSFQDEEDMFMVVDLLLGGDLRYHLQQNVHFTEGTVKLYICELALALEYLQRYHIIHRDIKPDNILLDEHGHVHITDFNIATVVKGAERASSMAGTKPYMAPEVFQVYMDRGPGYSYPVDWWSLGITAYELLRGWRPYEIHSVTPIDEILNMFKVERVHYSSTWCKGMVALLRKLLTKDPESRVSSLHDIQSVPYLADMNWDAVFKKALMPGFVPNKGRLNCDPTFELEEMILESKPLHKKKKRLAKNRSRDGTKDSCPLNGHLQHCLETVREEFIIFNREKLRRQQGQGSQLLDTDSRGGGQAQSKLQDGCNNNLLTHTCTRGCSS
Protocol: as §1

DDR1 = target: T14, DDR1 (Homo sapiens, UniProt Q08345)
T14 construct: purchased DiscoverX (KINOMEscan)
T14 sequence (Q08345 19-913): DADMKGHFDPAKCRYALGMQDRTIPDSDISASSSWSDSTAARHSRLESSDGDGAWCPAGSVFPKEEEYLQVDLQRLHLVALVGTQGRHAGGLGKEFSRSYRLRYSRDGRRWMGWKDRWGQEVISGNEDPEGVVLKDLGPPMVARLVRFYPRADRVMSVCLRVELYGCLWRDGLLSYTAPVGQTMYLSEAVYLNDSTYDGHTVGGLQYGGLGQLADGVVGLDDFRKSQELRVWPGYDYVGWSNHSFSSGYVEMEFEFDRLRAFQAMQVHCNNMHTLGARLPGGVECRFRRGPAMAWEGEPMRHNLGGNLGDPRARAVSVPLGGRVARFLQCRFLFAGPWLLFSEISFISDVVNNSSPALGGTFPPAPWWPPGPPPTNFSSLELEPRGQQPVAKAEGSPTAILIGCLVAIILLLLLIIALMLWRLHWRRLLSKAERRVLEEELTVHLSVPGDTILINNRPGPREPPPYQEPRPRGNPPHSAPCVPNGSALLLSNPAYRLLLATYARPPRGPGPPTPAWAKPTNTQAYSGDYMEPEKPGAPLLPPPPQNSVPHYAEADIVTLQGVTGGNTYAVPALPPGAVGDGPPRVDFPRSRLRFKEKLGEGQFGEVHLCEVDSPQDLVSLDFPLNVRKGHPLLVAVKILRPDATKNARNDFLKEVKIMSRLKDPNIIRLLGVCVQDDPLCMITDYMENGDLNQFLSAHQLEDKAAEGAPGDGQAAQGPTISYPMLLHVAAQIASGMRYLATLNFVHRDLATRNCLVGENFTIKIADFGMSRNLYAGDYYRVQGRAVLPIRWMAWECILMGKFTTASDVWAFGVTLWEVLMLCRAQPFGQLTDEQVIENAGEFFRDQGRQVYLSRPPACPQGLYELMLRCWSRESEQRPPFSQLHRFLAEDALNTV
Protocol: as §1

FGFR3(G697C) = target: T15, FGFR3(G697C) (Homo sapiens, UniProt P22607, G697C)
T15 construct: purchased DiscoverX (KINOMEscan)
Protocol: as §1

[2] = target: T16, ABL1(F317L)-phosphorylated (Homo sapiens, UniProt P00519, F317L)
T16 construct: purchased DiscoverX (KINOMEscan)
Protocol: as §1

DAPK3 = target: T17, DAPK3 (Homo sapiens, UniProt O43293)
T17 construct: purchased DiscoverX (KINOMEscan)
T17 sequence (O43293 whole entry): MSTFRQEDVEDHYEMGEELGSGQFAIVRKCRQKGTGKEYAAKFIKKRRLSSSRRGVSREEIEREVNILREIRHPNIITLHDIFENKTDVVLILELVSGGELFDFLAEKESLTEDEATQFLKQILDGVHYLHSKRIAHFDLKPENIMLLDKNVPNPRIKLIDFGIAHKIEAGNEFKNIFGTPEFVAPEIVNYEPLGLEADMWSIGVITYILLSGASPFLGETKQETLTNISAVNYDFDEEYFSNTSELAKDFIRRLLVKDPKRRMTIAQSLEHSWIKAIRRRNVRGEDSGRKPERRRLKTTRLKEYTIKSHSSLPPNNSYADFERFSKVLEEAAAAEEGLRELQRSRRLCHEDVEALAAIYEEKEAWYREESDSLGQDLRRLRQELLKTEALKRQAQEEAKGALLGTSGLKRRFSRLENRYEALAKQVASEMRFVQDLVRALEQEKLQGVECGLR
Protocol: as §1

YANK3 = target: T18, YANK3 (Homo sapiens, UniProt Q86UX6)
T18 construct: purchased DiscoverX (KINOMEscan)
Protocol: as §1

[3] = target: T19, ABL1(Y253F)-phosphorylated (Homo sapiens, UniProt P00519, Y253F)
T19 construct: purchased DiscoverX (KINOMEscan)
Protocol: as §1

[4] = target: T20, RPS6KA4 (Kin.Dom.2-C-terminal) (Homo sapiens, UniProt O75676)
T20 construct: Kin.Dom.2-C-terminal; purchased DiscoveRx (KinomeScan, San Diego, CA, USA)
T20 sequence (O75676 411-674 limits assumed): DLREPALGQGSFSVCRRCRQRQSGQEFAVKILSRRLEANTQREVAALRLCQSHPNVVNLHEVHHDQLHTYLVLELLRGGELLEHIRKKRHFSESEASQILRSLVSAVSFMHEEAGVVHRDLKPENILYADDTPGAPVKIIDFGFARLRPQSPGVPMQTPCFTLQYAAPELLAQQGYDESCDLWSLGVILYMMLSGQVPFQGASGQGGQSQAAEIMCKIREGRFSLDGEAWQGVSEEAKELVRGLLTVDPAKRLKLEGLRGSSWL
Protocol: as §1

LZK = target: T21, LZK (Homo sapiens, UniProt O43283)
T21 construct: purchased DiscoverX (KINOMEscan)
Protocol: as §1

DCAMKL1 = target: T22, DCAMKL1 (Homo sapiens, UniProt O15075)
T22 construct: purchased DiscoverX (KINOMEscan)
Protocol: as §1

[5] = target: T23, EGFR(L747-E749del, A750P) (Homo sapiens, UniProt P00533, A750P/DEL747-749)
T23 construct: purchased DiscoverX (KINOMEscan)
T23 sequence (P00533 with tags, fused parts or gaps DEL747-749/A750P limits assumed): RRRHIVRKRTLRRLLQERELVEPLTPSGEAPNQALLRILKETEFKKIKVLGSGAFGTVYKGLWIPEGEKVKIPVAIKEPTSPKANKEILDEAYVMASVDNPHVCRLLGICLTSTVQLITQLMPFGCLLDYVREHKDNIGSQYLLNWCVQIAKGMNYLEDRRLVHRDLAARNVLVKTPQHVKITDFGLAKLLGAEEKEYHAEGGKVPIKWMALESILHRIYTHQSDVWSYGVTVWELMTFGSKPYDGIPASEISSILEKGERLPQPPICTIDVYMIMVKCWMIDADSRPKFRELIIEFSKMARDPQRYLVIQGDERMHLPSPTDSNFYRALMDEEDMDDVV
Protocol: as §1

DCAMKL3 = target: T24, DCAMKL3 (Homo sapiens, UniProt Q9C098)
T24 construct: purchased DiscoverX (KINOMEscan)
Protocol: as §1

TRKC = target: T25, TRKC (Homo sapiens, UniProt Q16288)
T25 construct: purchased DiscoverX (KINOMEscan)
Protocol: as §1

AURKA = target: T26, AURKA (Homo sapiens, UniProt O14965)
T26 construct: purchased DiscoverX (KINOMEscan)
T26 sequence (O14965 whole entry): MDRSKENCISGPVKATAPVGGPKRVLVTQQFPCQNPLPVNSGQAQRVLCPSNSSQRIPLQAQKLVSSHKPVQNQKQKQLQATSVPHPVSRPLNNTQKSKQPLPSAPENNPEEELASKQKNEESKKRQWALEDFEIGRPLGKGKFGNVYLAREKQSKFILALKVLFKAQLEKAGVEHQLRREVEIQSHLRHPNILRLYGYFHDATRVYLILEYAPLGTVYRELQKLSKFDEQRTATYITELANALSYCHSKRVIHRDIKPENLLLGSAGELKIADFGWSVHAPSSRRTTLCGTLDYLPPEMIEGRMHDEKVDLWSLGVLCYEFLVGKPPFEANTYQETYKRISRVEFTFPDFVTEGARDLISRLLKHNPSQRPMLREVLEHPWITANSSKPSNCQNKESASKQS
Protocol: as §1

CSNK1G2 = target: T27, CSNK1G2 (Homo sapiens, UniProt P78368)
T27 construct: purchased DiscoverX (KINOMEscan)
T27 sequence (P78368 whole entry): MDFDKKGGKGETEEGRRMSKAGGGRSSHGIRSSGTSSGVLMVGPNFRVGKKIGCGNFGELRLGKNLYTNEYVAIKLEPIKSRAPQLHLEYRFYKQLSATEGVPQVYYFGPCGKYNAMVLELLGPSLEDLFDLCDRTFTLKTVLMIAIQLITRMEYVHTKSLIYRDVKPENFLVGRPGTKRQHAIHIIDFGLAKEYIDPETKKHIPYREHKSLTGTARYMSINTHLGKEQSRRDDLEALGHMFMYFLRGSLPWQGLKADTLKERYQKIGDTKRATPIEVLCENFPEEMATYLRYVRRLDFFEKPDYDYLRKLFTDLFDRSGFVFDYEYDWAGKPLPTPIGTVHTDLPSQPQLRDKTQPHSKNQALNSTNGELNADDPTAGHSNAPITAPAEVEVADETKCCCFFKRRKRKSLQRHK
Protocol: as §1

EPHA3 = target: T28, EPHA3 (Homo sapiens, UniProt P29320)
T28 construct: purchased DiscoverX (KINOMEscan)
Protocol: as §1

[6] = target: T29, ABL1(T315I)-phosphorylated (Homo sapiens, UniProt P00519, T315I)
T29 construct: purchased DiscoverX (KINOMEscan)
Protocol: as §1

EPHA8 = target: T30, EPHA8 (Homo sapiens, UniProt P29322)
T30 construct: purchased DiscoverX (KINOMEscan)
Protocol: as §1

LIMK1 = target: T31, LIMK1 (Homo sapiens, UniProt P53667)
T31 construct: purchased DiscoverX (KINOMEscan)
Protocol: as §1

ALK = target: T32, ALK (Homo sapiens, UniProt Q9UM73)
T32 construct: purchased DiscoverX (KINOMEscan)
Protocol: as §1

LKB1 = target: T33, LKB1 (Homo sapiens, UniProt Q15831)
T33 construct: purchased DiscoverX (KINOMEscan)
T33 sequence (Q15831 whole entry): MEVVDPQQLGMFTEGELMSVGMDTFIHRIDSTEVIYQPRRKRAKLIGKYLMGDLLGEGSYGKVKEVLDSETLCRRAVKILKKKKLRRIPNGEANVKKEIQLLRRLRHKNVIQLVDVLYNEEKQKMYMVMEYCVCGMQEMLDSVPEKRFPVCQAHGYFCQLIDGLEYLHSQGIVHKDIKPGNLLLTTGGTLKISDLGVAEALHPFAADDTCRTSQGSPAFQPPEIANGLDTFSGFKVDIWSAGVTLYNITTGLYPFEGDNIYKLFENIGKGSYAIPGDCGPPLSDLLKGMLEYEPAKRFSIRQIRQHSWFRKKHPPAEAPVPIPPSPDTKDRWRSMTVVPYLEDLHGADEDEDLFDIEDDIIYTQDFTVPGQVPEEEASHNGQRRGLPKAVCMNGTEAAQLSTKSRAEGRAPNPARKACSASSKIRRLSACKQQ
Protocol: as §1

NIM1 = target: T34, NIM1 (Homo sapiens, UniProt Q8IY84)
T34 construct: purchased DiscoverX (KINOMEscan)
Protocol: as §1

YSK1 = target: T35, YSK1 (Homo sapiens, UniProt O00506)
T35 construct: purchased DiscoverX (KINOMEscan)
Protocol: as §1

MRCKA = target: T36, MRCKA (Homo sapiens, UniProt Q5VT25)
T36 construct: purchased DiscoverX (KINOMEscan)
Protocol: as §1

## COc1cc(/C=C2\N=C(N)NC2=O)ccc1O [Polyandrocarpamine A]
MST4
  Score: 100
TIE1
  Score: 81
EPHB4
  Score: 100
OSR1
  Score: 100
[1]
  Score: 100
CDK9
  Score: 88
MKNK2
  Score: 100
ICK
  Score: 100
MEK6
  Score: 100
TGFBR1
  Score: 100
EPHB3
  Score: 100
SGK3
  Score: 100
YANK2
  Score: 94
DDR1
  Score: 100
FGFR3(G697C)
  Score: 83
[2]
  Score: 98
DAPK3
  Score: 50
YANK3
  Score: 100
[3]
  Score: 100
[4]
  Score: 22
LZK
  Score: 100
DCAMKL1
  Score: 98
[5]
  Score: 100
DCAMKL3
  Score: 94
TRKC
  Score: 82
AURKA
  Score: 100
CSNK1G2
  Score: 100
EPHA3
  Score: 87
[6]
  Score: 85
EPHA8
  Score: 100
LIMK1
  Score: 100
ALK
  Score: 100
LKB1
  Score: 100
NIM1
  Score: 100
YSK1
  Score: 100
MRCKA
  Score: 100
